Measured values taken from US20070110818A1, “Milk fractions and milk preparations for treating and/or preventing cox-2 mediated diseases” (priority 2003, published 2007).

Target: T1, COX-2 (Homo sapiens, UniProt P35354)
T1 construct: treated with 100 nM (nmol/l) phorbol 12-myristate 13-acetate for 6 h at 37° C. to induce COX-2 isoenzyme; endogenous in cells; host or cells: HUV-EC-C (ATCC CRL1730), PMA-induced
T1 sequence (P35354 18-604): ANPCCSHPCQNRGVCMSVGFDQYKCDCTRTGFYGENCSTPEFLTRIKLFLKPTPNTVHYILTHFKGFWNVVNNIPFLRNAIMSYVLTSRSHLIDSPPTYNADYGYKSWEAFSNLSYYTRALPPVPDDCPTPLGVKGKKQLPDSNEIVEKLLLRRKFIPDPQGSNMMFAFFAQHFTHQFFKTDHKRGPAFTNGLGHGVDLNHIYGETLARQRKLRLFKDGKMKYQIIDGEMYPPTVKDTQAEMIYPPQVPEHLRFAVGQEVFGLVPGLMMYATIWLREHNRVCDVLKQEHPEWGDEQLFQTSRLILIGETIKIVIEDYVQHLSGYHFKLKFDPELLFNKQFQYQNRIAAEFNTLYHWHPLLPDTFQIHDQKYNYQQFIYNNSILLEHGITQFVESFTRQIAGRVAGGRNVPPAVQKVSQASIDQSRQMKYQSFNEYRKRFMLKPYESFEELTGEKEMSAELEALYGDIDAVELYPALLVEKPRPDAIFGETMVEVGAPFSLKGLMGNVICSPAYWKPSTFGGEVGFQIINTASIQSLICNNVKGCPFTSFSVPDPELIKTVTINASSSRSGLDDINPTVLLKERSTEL
Assay: COX-2 screening in PMA-induced HUV-EC-C cells (Prostaglandine-E2 production by RIA)
Type: cell-based
Description: HUV-EC-C cells (a permanent endothelial cell line derived from the vein of a normal human umbilical cord; ATCC CRL1730; M. Miralpeix, M. Camacho et al., Brit. J. Pharmacol. 121 (1997), 171-180), were seeded onto 96-well plates (RPMI 1640+10% FCS) and treated with 100 nM (nmol/l) phorbol 12-myristate 13-acetate for 6 h at 37° C. to induce COX-2 isoenzyme. 50 μM (μmol/l) arachidonic acid were then added and the cells were incubated in the presence of test compounds or mixtures for 30 min at 37° C. Prostaglandine-E2 production was measured by radioimmuno assay (RIA) and the radioactivity determined with a scintillation counter (Topcount, Packard) using a liquid scintillation cocktail (Packard).
The results obtained are expressed as a percent of control values and as a percent inhibition of control values obtained in the presence of the test compounds. The control values correspond to the COX-2 activity of HUV-EC-C cells after stimulation with Phorbol Myristate Acetate (PMA) during 6 hours at 37° C. (can be done also with Tumor Necrosis Factor type alpha: TNFα) in absence of test compound.
The concentration causing a half-maximal inhibition of control values (IC50 value) and Hill coefficients (nH) were determined for the reference compounds (cycloheximide) by nonlinear regression analysis of their inhibition curves. These parameters were obtained by Hill equation curve fitting. […]

N[C@@H](CS)C(=O)O [Cysteine]
cyclooxygenase-2 inhibiting activity (in words): no effect
